According to US7935708B2, “Dihydropyrazolopyrimidinone derivatives” (MSD K.K., priority 2006, dated 2011):

How the values were obtained:
[1] = test system: Cdc2 (Cdk1) tyrosine 15 phosphorylation in NCI-H1299 cells; test: Cdc2 (Cdk1) tyrosine 15-phosphorylation-inhibitory effect in camptothecin-treated NCI-H1299 cells (ELISA); assay type: cell-based; details: Homo sapiens, camptothecin 200 nM 16 hours, then test compound with nocodazole 8 hours, read-out: Cdc2-Y15 Phosphorylation-Inhibitory Effect (H1299, + camptothecin) (EC50)
Description: (§1) Pharmaceutical Text 2 (Method of Determining Drug Potency in Cells (Cdc2 (Cdk1) Tyrosine 15-Phosphorylation-Inhibitory Effect))
(§2) Fetal bovine serum (FBS) was obtained from Morgate; media RPMI1640 and DMEM were from Invitrogen; camptothecin was from Sigma; gemcitabine was from Nippon Eli Lilly; nocodazole and protease inhibitor cocktail were from Sigma; rabbit anti-Cdc2 antibody and mouse anti-Cdc2 antibody were from Santa Cruz Biotechnology; rabbit anti-tyrosine 15-phosphorylated Cdc2 antibody and horseradish peroxidase-labeled anti-mouse IgG antibody were from Cell Signaling Technology; sure blue reserve TMB peroxidase substrate was from Kirkegaard and Perry Laboratories.
(§3) Human non-small cell lung cancer cells (NCI-H1299) and human colon cancer cells (WiDr) were obtained from American Type Culture Collection (ATCC).
(§4) c) Method of Effect Determination:
In the method of using NCI-H1299 cells, the cells were suspended in RPMI1640 containing 10% FBS, and the cell suspension was applied to a 96-well Nunclondelta-processed plastic plate (bought from Nunc), in an amount of 2000 cells/100 μL/well, in which the cells were incubated overnight in 5% CO2-95% air at 37° C. Camptothecin was dissolved in dimethylsulfoxide (DMSO), and diluted with RPMI1640 containing 10% FBS, and then this was applied to the plate on which the cells had been previously sowed, in an amount of 50 μL/well in such a manner that the final concentration of camptothecin could be 200 nM. Then, the cells were incubated for 16 hours at 37° C. in 5% CO2-95% air. The test compound was stepwise diluted with DMSO, then diluted with 4000 nM nocodazole-containing RPMI1640 containing 10% FBS, and applied to the plate on which the camptothecin-treated cells had been sowed, in an amount of 50 μL/well. The cells were incubated for 8 hours at 37° C. in 5% CO2-95% air, then the medium was removed, and a cytolytic buffer was added to the plate in an amount of 100 μL/well, shaken at 4° C. for 2 hours, then frozen at −80° C., and melted to give a cell solution. Cdc2 and tyrosine 15-phosphorylated Cdc2 in the cell solution were determined through enzyme-linked immunosorbent assay (ELISA), and the ratio of tyrosine 15-phosphorylated Cdc2 to Cdc2 was calculated to obtain the 50% phosphorylation-inhibitory concentration of the test compound to the cells (EC50, nM). The cytolytic buffer used herein is an aqueous solution containing 20 mM Hepes (pH 7.5), 150 mM sodium chloride, 1 mM disodium ethylenediaminetetraacetate, 0.1% polyoxyethylene (10) octylphenyl ether, 1% protease inhibitor cocktail, 1 mM dithiothreitol, 2 mM sodium orthovanadate, 10 mM sodium fluoride and 10 mM glycerol diphosphate. Cdc2 was determined through ELISA as follows: A rabbit anti-Cdc2 antibody solution, which had been diluted 200-fold with 50 mM carbonate-bicarbonate buffer (pH 9.6), was applied to a 96-well maxisorpimmuno plate (bought from Nunc), in an amount of 50 μL/well, and statically kept overnight at 4° C. so as to fix the antibody on the plate. Next, this was washed three times with phosphate-buffered saline (PBS), and 5% bovine serum albumin-containing PBS (5% BSA/PBS) was added thereto in an amount of 300 μL/well, and statically kept at room temperature for 2 hours, and then again washed three times with PBS. A mouse anti-Cdc2 antibody solution that had been diluted 100-fold with 0.05% polyoxyethylene sorbitan monolaurate and 1% BSA-containing Tris-HCl-buffered saline (1% BSA/TBS-T) was added to it in an amount of 50 μL/well, and the cell solution was added thereto in an amount of 5 μL/well and statically kept overnight at 4° C. Next, this was washed three times with 0.05% polyoxyethylene sorbitan monolaurate and 0.1% BSA-containing Tris-HCl-buffered saline (0.1% BSA/TBS-T), and then a horseradish peroxidase-labeled anti-mouse IgG antibody solution that had been diluted 2000-fold with 1% BSA/TBS-T was added thereto in an amount of 70 μL/well, and statically kept at room temperature for 3 hours. […]

[2] = test system: Cdc2 (Cdk1) tyrosine 15 phosphorylation in WiDr cells; test: Cdc2 (Cdk1) tyrosine 15-phosphorylation-inhibitory effect in gemcitabine-treated WiDr cells (ELISA); assay type: cell-based; details: Homo sapiens, gemcitabine 100 nM 24 hours, then test compound with nocodazole 8 hours, read-out: Cdc2-Y15 Phosphorylation-Inhibitory Effect (WiDr, + gemcitabine) (EC50)
Description: as §1, §2, §3, §4
In the method of using WiDr cells, the cells were suspended in DMEM containing 10% FBS, and the cell suspension was applied to a 96-well Nunclondelta-processed plastic plate in an amount of 2000 cells/100 μL/well, in which the cells were incubated overnight in 5% CO2-95% air at 37° C. Gemcitabine was dissolved in PBS, and diluted with DMEM containing 10% FBS, and then this was applied to the plate on which the cells had been previously sowed, in an amount of 50 μL/well in such a manner that the final concentration of gemcitabine could be 100 nM. Then, the cells were incubated for 24 hours at 37° C. in 5% CO2-95% air. The test compound was stepwise diluted with DMSO, then diluted with 1200 nM nocodazole-containing DMEM containing 10% FBS, and applied to the plate on which the gemcitabine-treated cells had been sowed, in an amount of 50 μL/well. The cells were incubated for 8 hours at 37° C. in 5% CO2-95% air, then the culture was removed, and a cytolytic buffer was added to the plate in an amount of 100 μL/well, shaken at 4° C. for 2 hours, then frozen at −80° C., and melted to give a cell solution. Cdc2 and tyrosine 15-phosphorylated Cdc2 in the cell solution were determined through ELISA, and the ratio of tyrosine 15-phosphorylated Cdc2 to Cdc2 was calculated to obtain the 50% phosphorylation-inhibitory concentration of the test compound to the cells (EC50, nM). Cdc2 was determined through ELISA as follows: A rabbit anti-Cdc2 antibody solution, which had been diluted 200-fold with 50 mM carbonate-bicarbonate buffer (pH 9.6), was applied to a 96-well maxisorp plastic plate in an amount of 50 μL/well, and statically kept overnight at 4° C. so as to fix the antibody on the plate. Next, this was washed three times with PBS, and 5% BSA/PBS was added thereto in an amount of 300 μL/well, and statically kept at room temperature for 2 hours, and then again washed three times with PBS. A mouse anti-Cdc2 antibody solution that had been diluted 100-fold with 1% BSA/TBS-T was added to it in an amount of 50 μL/well, and the cell solution was added thereto in an amount of 10 μL/well and statically kept overnight at 4° C. Next, this was washed three times with 0.1% BSA/TBS-T, and then a horseradish peroxidase-labeled anti-mouse IgG antibody solution that had been diluted 2000-fold with 1% BSA/TBS-T was added thereto in an amount of 70 μL/well, and statically kept at room temperature for 3 hours. Finally, this was washed five times with 0.1% BSA/TBS-T, then a substrate of sure blue reserve TMB peroxidase was added to it in an amount of 100 μL/well, and left for coloration in a dark place at room temperature for 15 minutes. Then, 1 M hydrochloric acid was added to it in an amount of 100 μL/well to stop the reaction, and this was analyzed through colorimetry. […]

C=CCn1c(=O)c2cnc(Nc3ccc(N4CCN(C)CC4)cc3)nc2n1-c1cccc(C(=O)N(C)C)c1 [Example 1, 3-(2-allyl-6-{[4-(4-methylpiperazin-1-yl)phenyl]amino}-3-oxo-1,2-dihydro-3H-pyrazolo[3,4-d]pyrimidin-1-yl)-N,N-dimethylbenzamide]
EC50 [1]: 104 nM
EC50 [2]: 143 nM

C=CCn1c(=O)c2cnc(Nc3ccc(N4CCN(C)CC4)cc3)nc2n1-c1cccc(C(C)(C)O)c1 [Example 19, 2-allyl-1-[3-(1-hydroxy-1-methylethyl)phenyl]-6-{[4-(4-methylpiperazin-1-yl)phenyl]amino}-1,2-dihydro-3H-pyrazolo[3,4-d]pyrimidin-3-one]
EC50 [1]: 247 nM
EC50 [2]: 350 nM

C=CCn1c(=O)c2cnc(Nc3ccc(N4CCN(C)CC4)cc3)nc2n1-c1cccc(CN(C)C)c1 [Example 26, 2-allyl-1-[3-(dimethylaminomethyl)phenyl]-6-{[4-(4-methylpiperazin-1-yl)phenyl]amino}-1,2-dihydro-3H-pyrazolo[3,4-d]pyrimidin-3-one]
EC50 [1]: 114 nM

C=CCn1c(=O)c2cnc(Nc3ccc(N4CCN(C)CC4)c(CO)c3)nc2n1-c1ccccn1 [Example 29, 2-allyl-6-{[3-hydroxymethyl-4-(4-methylpiperazin-1-yl)phenyl]amino}-1-pyridin-2-yl-1,2-dihydro-3H-pyrazolo[3,4-d]pyrimidin-3-one]
EC50 [1]: 188 nM

C=CCn1c(=O)c2cnc(Nc3ccc(N4CCN(C)CC4)c(C)c3)nc2n1-c1cccc(CN(C)C)n1 [Example 52, 2-allyl-1-{6-[(dimethylamino)methyl]pyridin-2-yl}-6-{[3-methyl-4-(4-methylpiperazin-1-yl)phenyl]amino}-1,2-dihydro-3H-pyrazolo[3,4-d]pyrimidin-3-one]
EC50 [1]: 46 nM

C=CCn1c(=O)c2cnc(Nc3ccc(N4CCN(C)CC4)c(C)c3)nc2n1-c1cccc(OCCO)n1 [Example 98, 2-allyl-1-[6-(2-hydroxyethoxy)pyridin-2-yl]-6-{[3-methyl-4-(4-methylpiperazin-1-yl)phenyl]amino}-1,2-dihydro-3H-pyrazolo[3,4-d]pyrimidin-3-one]
EC50 [1]: 83 nM
EC50 [2]: 39 nM

C=CCn1c(=O)c2cnc(Nc3ccc(N4CCN(C)CC4)cc3)nc2n1-c1cccc(CN(C)S(C)(=O)=O)n1 [Example 99, N-{[6-(2-allyl-6-{[4-(4-methylpiperazin-1-yl)phenyl]amino}-3-oxo-1,2-dihydro-3H-pyrazolo[3,4-d]pyrimidin-1-yl)pyridin-2-yl]methyl}-N-methylmethanesulfonamide]
EC50 [1]: 86 nM
EC50 [2]: 122 nM

Cc1cc(Nc2ncc3c(=O)n(Cc4ccccc4)n(-c4ccccc4)c3n2)ccc1N1CCN(C)CC1 [Example 111, 2-benzyl-6-{[3-methyl-4-(4-methylpiperazin-1-yl)phenyl]amino}-1-phenyl-1,2-dihydro-3H-pyrazolo[3,4-d]pyrimidin-3-one]
EC50 [1]: 93 nM

C#CCn1c(=O)c2cnc(Nc3ccc(N4CCN(C)CC4)cc3)nc2n1-c1cccc(C(C)(C)O)n1 [Example 113, 1-[6-(1-hydroxy-1-methylethyl)pyridin-2-yl]-6-{[4-(4-methylpiperazin-1-yl)phenyl]amino}-2-(2-propynyl)-1,2-dihydro-3H-pyrazolo[3,4-d]pyrimidin-3-one]
EC50 [2]: 8 nM
